Read-outs that look alike come from different tables or passages of the source.
Experiments:
pemphigus folliaceus = assay: Dog Pemphigus Foliaceus Study; format: in vivo; details: for overall efficacy and safety in treatment of PF: single agent
Description: A 30 kg Doberman dog with a characteristic first presentation of pemphigus folliaceus on the nose and paws was administered an oral dose of 500 mg daily of the BTK inhibitor (R,E)-2-(3-(4-amino-3-(2-fluoro-4-phenoxyphenyl)-1H-pyrazolo[3,4-d]-pyrimidin-1-yl)piperidine-1-carbonyl)-4,4-dimethylpent-2-enenitrile instead of the usual treatment for pemphigus of high dose corticosteroids (typically 1-2 mg/kg).
The dog responded clinically to the drug as a monotherapy within three days, with improved eating and ambulation noted by the owner.

BTK = target: T1, BTK (Canis lupus familiaris, UniProt A0A8I3P3Z9); assay: BTK occupancy in blood of the treated dog; format: in vivo; details: 30 kg Doberman dog, oral 500 mg daily; blood taken 24 hours after the first dose; read-out: level of BTK occupancy 24 hours after each dose
T1 construct: from tissue; host or cells: blood of the treated Doberman dog
T1 sequence (A0A8I3P3Z9 1-664): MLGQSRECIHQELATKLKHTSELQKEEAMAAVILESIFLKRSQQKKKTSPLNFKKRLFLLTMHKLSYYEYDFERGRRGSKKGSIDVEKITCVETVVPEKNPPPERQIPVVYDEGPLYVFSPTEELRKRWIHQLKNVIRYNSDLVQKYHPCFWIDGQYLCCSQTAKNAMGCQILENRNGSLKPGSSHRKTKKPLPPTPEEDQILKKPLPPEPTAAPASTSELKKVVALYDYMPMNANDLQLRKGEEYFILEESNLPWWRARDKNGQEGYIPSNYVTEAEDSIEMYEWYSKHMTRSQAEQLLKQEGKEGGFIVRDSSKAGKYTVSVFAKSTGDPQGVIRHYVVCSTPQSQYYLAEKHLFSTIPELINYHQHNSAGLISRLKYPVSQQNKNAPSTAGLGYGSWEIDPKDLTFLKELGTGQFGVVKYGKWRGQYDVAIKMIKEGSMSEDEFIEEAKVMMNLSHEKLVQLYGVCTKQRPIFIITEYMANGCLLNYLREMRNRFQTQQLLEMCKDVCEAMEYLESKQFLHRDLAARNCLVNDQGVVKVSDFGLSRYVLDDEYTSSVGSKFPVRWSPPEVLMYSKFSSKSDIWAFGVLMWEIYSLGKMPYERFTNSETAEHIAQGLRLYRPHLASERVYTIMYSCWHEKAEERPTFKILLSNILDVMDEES

[1] = cited from earlier work
[2] = ANCA-associated vasculitis, cited from earlier work
[3] = cited from earlier work; for onset of effect / clinical response / time of maximal effect: pemphigus vulgaris

Molecule: CC(C)(C)/C=C(\C#N)C(=O)N1CCC[C@@H](n2nc(-c3ccc(Oc4ccccc4)cc3F)c3c(N)ncnc32)C1 [(R,E)-2-(3-(4-amino-3-(2-fluoro-4-phenoxyphenyl)-1H-pyrazolo[3,4-d]-pyrimidin-1-yl)piperidine-1-carbonyl)-4,4-dimethylpent-2-enenitrile]
- manifestation of clinical response compared with systemic corticosteroid therapy (pemphigus folliaceus; dog PF): as rapid and comparable to that observed with systemic corticosteroid therapy
- corticosteroid-like adverse effects (polyuria, polydipsia, polyphagia or weight gain) (pemphigus folliaceus; dog PF, oral 500 mg daily): none and No well-known corticosteroid-like adverse effects
- skin lesions by four weeks (pemphigus folliaceus; dog PF, oral 500 mg daily, four weeks): completely healed
- time to clinical response (improved eating and ambulation) (pemphigus folliaceus; dog PF, oral 500 mg daily, monotherapy): three
- clinical status at one week follow up visit (pemphigus folliaceus; dog PF, oral 500 mg daily, one week): improved general health and commencement of pemphigus lesion healing
- clinical status after two weeks of treatment (pemphigus folliaceus; dog PF, oral 500 mg daily, two weeks): general health of the dog was excellent and skin lesions continued to improve
- overall efficacy and safety in treatment of PF (pemphigus folliaceus): effective and safe
- overall efficacy and safety in treatment of PF (pemphigus folliaceus; listed as (R, E)-2-(3-(4-amino-3-(2-fluoro-4-phenoxyphenyl)-1H-pyrazolo[3,4-d]-pyrimidin-1))): rapidly control dog PF
- receptor occupancy at 500 mg (BTK): ~70%

Molecule: Belimumab: an anti-Blys antibody
- patients able to reduce corticosteroid use to <7.5 mg of prednisone ([1]; chronic SLE, week 40-52): ≤ 21% of patients (Benlysta US Product
- effect on improvement of chronic SLE [1]: modest and delayed effect on improvement

Molecule: Rituximab: anti-CD20 antibody rituximab, approved for treatment of B cell malignancies
- cases achieving remission ([2]; despite concomitant use of corticosteroids for 5 months): in only 64% of cases despite concomitant use
- onset of effect [2]: Rituximab has delayed effect in ANCA-
- side effects in treated patients ([3]; patients treated with rituximab): serious side effects such as pneumonia
- onset of effect / clinical response [3]: Rituximab has delayed effect in pemphigus
- time of maximal effect [3]: vulgaris with maximal effect at 8-12 weeks
- onset of effect / clinical response ([3]; listed as rituximab): significant delay in clinical response
- time of maximal effect ([3]; listed as rituximab): 8-12 weeks

Source: patent US10485797B2, “Treatment of pemphigus” (Principia Biopharma Inc., priority 2014, dated 2019)
